Results as given in US11952584B2, “Functional peptides having antimicrobial activity against phytopathogenic microorganisms” (TOYOTA JIDOSHA KABUSHIKI KAISHA, priority 2019, dated 2024).
“And” between values parts separate entries of the source, which are not always exact repeats. Equal entries are not always repeated. “Also recorded” adds a separate entry of the source. Where two headings read alike, the source gives them in different places. Ends that are not written are not given here.

B1: mdfimlaaaivkesfiflligllaaILLSLEIFERKFSRSVWYYGFPAFSERTRKFWRIWKGK TS (peptide, listed as Solanum lycopersicum)
chain: MDFIMLAAAIVKESFIFLLIGLLAAILLSLEIFERKFSRSVWYYGFPAFSERTRKFWRIWKGKTS
notes: peptide of 65 amino acid residues from tomato xylem sap

Experiments:
[1] = test system: plant pathogenic filamentous fungi; format: cell-based; settings: summary of Table 3
[2] = test system: Colletotrichum orbiculare; format: cell-based; settings: for Plate antimicrobial activity test Collectotrichum orbiculare (level): 25° C., 1 day or 2 days
[3] = test system: Pyricularia oryzae; format: cell-based; settings: for Plate antimicrobial activity test Pyricularia oryzae (level): 25° C., 1 day or 2 days
[4] = test system: Colletotrichum destructivum; experiment: Colletotrichum destructivum leaf inoculation test (Chinese cabbage leaf); format: in vivo; settings: 25° C.; for Leaf inoculation test Chinese cabbage/Colletotrichum destructivum: 4 days, lesions by visual inspection; for lesion of Colletotrichum destructivum (in words): 4 days (FIG. 3)
From the text: In the present example, a suspension comprising Colletotrichum destructivum and a peptide to be tested was dropped on a plant leaf, and lesions were then observed by visual inspection to evaluate the antimicrobial activity of the tested peptide. First, the pores of Colletotrichum destructivum were suspended in water to result in a spore concentration of 5×10^5 spores/ml, so as to prepare a water suspension of spores. Subsequently, peptides to be tested (TsORF18 (full length), TsORF18-40 a.a., and TsORF18-2) were each added to the water suspension of spores, so that the final concentration of the peptides to be tested became 0 μM, 1 μM, 10 μM or 100 μM. Thereafter, 10 μl each of the water suspension of spores containing the peptide to be tested was dropped on the front side and the back side of the leaf of Chinese cabbage (variety name: “Kigokoro 85”). In this condition, incubation was carried out at 25° C. for 4 days. Thereafter, the front and back sides of the leaf were observed by visual inspection.

[5] = test system: Botrytis cinerea; format: cell-based; settings: for Plate antimicrobial activity test Botrytis cinerea (level): 25° C., 1 day or 2 days
[6] = test system: Botrytis cinerea; experiment: Botrytis cinerea leaf inoculation test (tomato leaf); format: in vivo; settings: for Leaf inoculation test Tomato/Botrytis cinerea: peptide 100 μM, 2 days, lesions by visual inspection; for inhibitory effects against Botrytis cinerea (in words): tomato leaf inoculation test, not shown in the figures
Procedure: In the present example, a suspension comprising Botrytis cinerea and a peptide to be tested was dropped on a plant leaf, and lesions were then observed by visual inspection to evaluate the antimicrobial activity of the tested peptide. First, the pores of Botrytis cinerea were suspended in a potato dextrose broth (PDB) to result in a spore concentration of 5×10^5 spores/ml, so as to prepare a PDB suspension spore solution. Subsequently, a peptide to be tested (TsORF18-2) was added to the PDB suspension spore solution, so that the final concentration of the peptide to be tested became 0 μM, 1 μM, 10 μM or 100 μM. It is to be noted that, as peptides to be tested, TsORF18 (full length) and TsORF18-40 a.a. were also used in the same manner as that of TsORF18-2. TsORF18 (full length) was dissolved in DMSO and was then used. On the other hand, TsORF18-2 and TsORF18-40 a.a were each dissolved in Milli-Q water and were then used. Thereafter, 10 μl each of the PDB suspension spore solution containing the peptide to be tested was dropped on the front side and the back side of the leaf of tomato (variety name: “Ponte Rosa”). In this condition, incubation was carried out at 25° C. for 2 days. Thereafter, the front and back sides of the leaf were observed by visual inspection.

[7] = test system: Colletotrichum destructivum; format: cell-based; settings: for Plate antimicrobial activity test Colletotrichum destructivum (level): 25° C., 1 day or 2 days
[8] = test system: Fusarium oxysporum; format: cell-based
[9] = test system: Erwinia carotovora subsp. carotovora
[10] = test system: Ralstonia solanacearum; settings: peptide 100 μM, 28° C. a whole day and night; for Inhibitory rate Ralstonia solanacearum: relative to water; for OD600 Ralstonia solanacearum: water control 2.6
[11] = test system: Xanthomonas oryzae pv. oryzae; settings: for Inhibitory rate Xanthomonas oryzae pv. oryzae / OD600 Xanthomonas oryzae pv. oryzae: peptide 100 μM, 28° C. a whole day and night; for Inhibitory rate Xanthomonas oryzae pv. oryzae: relative to water; for OD600 Xanthomonas oryzae pv. oryzae: water control 2.1
[12] = test system: Pseudomonas syringae pv. tomato
[13] = plate test, microscopic observation (FIG. 1), concentration not given

| Molecule | Plate antimicrobial activity test Collectotrichum orbiculare (level) ([2]; peptide 1 μM) | Plate antimicrobial activity test Collectotrichum orbiculare (level) ([2]; peptide 10 μM) | Plate antimicrobial activity test Collectotrichum orbiculare (level) ([2]; peptide 100 μM) | Plate antimicrobial activity test Pyricularia oryzae (level) ([3]; peptide 1 μM) | Plate antimicrobial activity test Pyricularia oryzae (level) ([3]; peptide 10 μM) | Plate antimicrobial activity test Pyricularia oryzae (level) ([3]; peptide 100 μM) | Leaf inoculation test Chinese cabbage/Colletotrichum destructivum ([4]; peptide 10 μM) | Leaf inoculation test Chinese cabbage/Colletotrichum destructivum ([4]; peptide 100 μM) | Plate antimicrobial activity test Botrytis cinerea (level) ([5]; peptide 1 μM) | Plate antimicrobial activity test Botrytis cinerea (level) ([5]; peptide 10 μM) | Plate antimicrobial activity test Botrytis cinerea (level) ([5]; peptide 100 μM) | Leaf inoculation test Tomato/Botrytis cinerea ([6]; tomato leaf, 25° C.) | Plate antimicrobial activity test Colletotrichum destructivum (level) ([7]; peptide 1 μM) | Plate antimicrobial activity test Colletotrichum destructivum (level) ([7]; peptide 10 μM) | Plate antimicrobial activity test Colletotrichum destructivum (level) ([7]; peptide 100 μM) | Plate antimicrobial activity test Fusarium oxysporum (level) [8] | Leaf inoculation test Chinese cabbage/Colletotrichum destructivum ([4]; peptide 1 μM) | OD600 Erwinia carotovora subsp. cartovora [9] | Inhibitory rate Ralstonia solanacearum [10] | OD600 Ralstonia solanacearum [10] | also measured |
| --- | --- | --- | --- | --- | --- | --- | --- | --- | --- | --- | --- | --- | --- | --- | --- | --- | --- | --- | --- | --- | --- |
| TRKFWRIW (listed as Solanum lycopersicum) [TsORF18-2-8aa-11] | 0 | 0 | 3 | 0 | 0 | 0 | ∘ | ∘ | 0 | 0 | 3 | ∘ | 0 | 0 | 3 | 3 and 0 |  |  |  |  | germination inhibitory activity against plant pathogenic filamentous fungi (in words) [1]: extremely excellent germination inhibitory activity |
| YYGFPAFSERTRKFWRIWKGKT [TsORF18-2] | 0 | 1 | 3 | 0 | 0 | 3 | ∘ | ∘ | 1 | 3 | 3 | ∘ | 0 | 2 | 3 | 3 and 1 and 0 | ∘ | 2.6 | 13.8% | 2.2 | inhibition of germination of Colletotrichum orbiculare (in words) [2, 13]: completely inhibited; also recorded: could inhibit germination; inhibition of germination of Pyricularia oryzae (in words) [3, 13]: completely inhibited; also recorded: could inhibit germination; lesion of Colletotrichum destructivum (in words) ([4]; any concentration of 1 μM, 10 μM or 100 μM): not observed; Inhibitory rate Erwinia carotovora subsp. cartovora ([9]; 100 μM): −39.2%; inhibition of germination of Botrytis cinerea (in words) [5, 13]: completely inhibited; also recorded: could inhibit germination; lesion of Botrytis cinerea (in words) ([6]; 100 μM, tomato leaf, 25° C., 2 days (FIG. 2)): not observed; Inhibitory rate Xanthomonas oryzae pv. oryzae [11]: 90.1%; OD600 Xanthomonas oryzae pv. oryzae [11]: 0.2; inhibition of growth of Xanthomonas oryzae pv. oryzae (in words) ([11]; summary of Table 4, 100 μM): could inhibit the growth; OD600 Pseudomonas syringae pv. tomato [12]: 1.9; Inhibitory rate Pseudomonas syringae pv. tomato ([12]; 100 μM): 25.3%; inhibition of growth of Pseudomonas syringae pv. tomato (in words) ([12]; 100 μM): could inhibit the growth; inhibition of germination of Colletotrichum destructivum (in words) [7, 13]: completely inhibited; also recorded: could inhibit germination; inhibition of germination of Fusarium oxysporum (in words) [8]: completely inhibited; also recorded: could inhibit germination |
| RKFWRIWK (listed as Solanum lycopersicum) [TsORF18-2-8aa-12] | 0 | 0 | 3 | 0 | 0 | 0 | ∘ | ∘ | 0 | 1 | 3 | ∘ | 0 | 0 | 3 | 3 and 2 and 0 | Δ |  |  |  | germination inhibitory activity against plant pathogenic filamentous fungi (in words) [1]: extremely excellent germination inhibitory activity |
| ILLSLEIFERKFSRSVWYYGFPAFSERTRKFWRIWKGKTS [TsORF18-40aa] |  |  |  |  |  |  | ∘ | ∘ | 0 | 0 | 3 |  | 0 | 0 | 3 | 3 and 0 | Δ | 2.2 | −7.7% | 2.8 | lesion of Colletotrichum destructivum (in words) ([4]; concentration of 10 μM or 100 μM): not observed; Inhibitory rate Erwinia carotovora subsp. cartovora ([9]; 100 μM): −18.1%; inhibitory effects against Botrytis cinerea (in words) [6]: not observed; Inhibitory rate Xanthomonas oryzae pv. oryzae [11]: −5.8%; OD600 Xanthomonas oryzae pv. oryzae [11]: 2.2; OD600 Pseudomonas syringae pv. tomato [12]: 1.9; Inhibitory rate Pseudomonas syringae pv. tomato ([12]; 100 μM): 25.8% |
| B1 |  |  |  |  |  |  |  |  | 0 | 0 | 0 |  | 0 | 0 | 1 | 0 |  | 1.9 | −0.9% | 2.6 | Inhibitory rate Erwinia carotovora subsp. cartovora [9]: −3.7%; inhibitory effects against Botrytis cinerea (in words) [6]: not observed; Inhibitory rate Xanthomonas oryzae pv. oryzae [11]: 6.5%; OD600 Xanthomonas oryzae pv. oryzae [11]: 2.0; Inhibitory rate Pseudomonas syringae pv. tomato [12]: −3.1%; OD600 Pseudomonas syringae pv. tomato [12]: 2.6 |
